Source: patent US9802990B2, “Functional peptides for obesity disorders” (DANONE, S.A., priority 2013, dated 2017)
Where two headings read alike, the source gives them in different places. Where no end group is shown, it is not given here.

What was measured:
soy glycinin = assay: Protease activity of LAB strains (supernatant and cells); assay type: biochemical; details: for Protease activity cell: cells; for Protease activity Supernatant: culture supernatant, proteases above 10 KDa concentrated
From the text: For the purpose of selecting the most efficient lactic acid bacteria having protease activity against glycinin, different strains of the genera Lactobacillus and Streptococcus were subject to the following hydrolysis assay.
The substrate selected to carry out the process of hydrolysis was soy glycinin. Glycinin is the soy major protein extracted from soy flour after treatment with mercaptoethanol followed by two centrifugation steps as described in Thanh V. H. et al. (Major proteins of soybean seeds: a straightforward fractionation and their characterization. 1976. J Agric Food Chem 24: 1117-1121). Among the enzymatic sources used to degrade glycinin, ten strains were tested: 6 strains from Streptococcus genera (strains 2, 3, 4, 5, 6, 7) and 4 strains from Lactobacillus genera (strains 8, 9, 10 and 11). All these strains were grown in optimal medium (MRS for Lactobacillus strains and BHI for Streptococcus strains) during 17 h at 37° C. and the proteases with a molecular weight above 10 KDa both in supernatant and cells were concentrated to be used as enzymatic sources in glycinin hydrolysis assays. On one hand, proteases from the supernatant were obtained after centrifugation for 15 min at 4000 rpm. Then the supernatant was ultrafiltrated by 10 KDa and the top was resuspended in 2 ml with 50 mM citrate phosphate buffer pH 7. On the other hand, cells obtained from the different cultures were washed with saline solution for 15 min at 4000 rpm and resuspended in 50 mM citrate phosphate buffer pH 7 to evaluate the protease activity in cells and supernatant (Table 1).

[1] = test system: C. elegans wild type strain N2; assay: C. elegans body fat reduction, Nile Red staining; assay type: in vivo, Caenorhabditis elegans; details: for % Fluorescence Reduction C. elegans: synthesized peptides at 1 μg/mL of final concentration; for % Fluorescence Reduction: nematodes fed NG with peptides alone or in Savia soy fermented product, alone or mixed, 1 μg/mL final concentration, Nile Red
Protocol: The ability to reduce body fat content in the nematode C. elegans was analyzed in a group of 5 peptide extracts previously obtained from glycinin (see Table 4). These samples were selected by their high effect on PL and PLA2 in vitro inhibition. Specifically, 5 peptide extracts were selected from the PLA2 inhibition assay (M20G, M5G, M31G, M27G and M29G). Body fat content was analyzed in the C. elegans wild type strain N2 by Red Nile dying of living nematodes. Experiments were carried out with age-synchronized populations, starting from egg-stage to young adult stage (3-day adults). During the experiments, worms were cultured in the NGM agar plates as control condition, NGM with the corresponding peptide extracts (100 μL/plate) and NGM with 6 μg/mL of Orlistat as positive control. Nile Red was added on top of the NG plates already seeded with Escherichia coli OP50 strain to a final concentration of 0.05 μg/ml. After incubation at 20° C., young adult worms (60 worms per condition) were taken to measure the in vivo fluorescence in a VersaFluor™ Fluorometer System. Fluorescence obtained in treated worms was calculated from fluorescence of worms fed in control conditions (reference sample). Experiments were carried out by duplicate.
From these purified fractions, a total of 11 peptides were selected to be synthesized and evaluated in vivo in the obesity model of C. elegans (Table 9). All peptides were evaluated at 1 μg/mL of final concentration.
We selected 5 peptides obtained from hydrolysis of glycinin with strain 6 (P8a, P6a, P14c, P16f, P14b) The peptides from glycinin were added to a soy fermented product (Savia® from Danone) both alone or mixed at final concentration of 1 μg/mL. Nematodes were fed with these products and then total lipids were quantified by Nile Red staining.

PL (pancreatic lipase) = target: T1, PL (pancreatic lipase) (Sus scrofa, UniProt P00591); assay: PL inhibition assay with 4-methyl umbelliferyl oleate (4MUO), fluorescence; assay type: biochemical; details: synthesized peptides
T1 sequence (P00591 1-450): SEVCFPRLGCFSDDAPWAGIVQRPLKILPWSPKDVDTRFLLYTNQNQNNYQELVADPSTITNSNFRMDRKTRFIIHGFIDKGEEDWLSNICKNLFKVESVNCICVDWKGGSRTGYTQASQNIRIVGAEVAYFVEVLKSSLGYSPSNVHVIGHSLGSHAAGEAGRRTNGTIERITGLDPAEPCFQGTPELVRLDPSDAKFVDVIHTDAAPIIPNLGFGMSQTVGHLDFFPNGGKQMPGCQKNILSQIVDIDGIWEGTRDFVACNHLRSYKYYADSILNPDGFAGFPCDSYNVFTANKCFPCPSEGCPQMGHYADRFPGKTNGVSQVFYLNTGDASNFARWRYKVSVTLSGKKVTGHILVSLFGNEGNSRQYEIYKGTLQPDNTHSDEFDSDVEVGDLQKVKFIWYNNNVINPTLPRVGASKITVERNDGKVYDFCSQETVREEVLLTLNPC
Protocol: Inhibition of PL was determined using 4-methyl umbelliferyl oleate (4MUO) as substrate as described by Sugiyama et al. (Oligomeric procyanidins in apple polyphenol are main active components for inhibition of pancreatic lipase and triglyceride absorption. J Agric Food Chem (2007); 55: 4604-4609) with some modifications. Aliquots of 25 μl of each peptide extract were incubated with 25 μl of PL solution (1 mg/ml) and preincubated for 10 minutes at 26° C. with stirring of 500 rpm. Reaction was initiated by adding 50 μl of 4MUO (0.1 mM) dissolved in Dulbecco's buffer. After incubation at 26° C. for 20 minutes with constant stirring (500 rpm) the reaction was stopped by adding 100 μl of 0.1 M sodium citrate buffer (pH 4.2). The amount of 4-methyl umbelliferone released by the enzyme was determined by fluorescence. Peptide extracts were used as inhibitors in the enzymatic assay but had to be diluted 1/20 or 1/50 because of the interference between the fluorescence and the buffer containing the peptides.

[2] = target: PLA2 (pancreatic phospholipase A2) (Homo sapiens, UniProt P04054); assay: PLA2 inhibition assay by HPLC with DOPC as substrate; assay type: biochemical
Protocol: Inhibition of PLA2 enzyme was determined by High Performance Liquid Chromatography (HPLC) using 1,2-dioleoyl-sn-glycero-3-phosphocholine (DOPC) as substrate as described by Singh et al. (A rapid isocratic high-performance liquid chromatography method for determination of cholesterol and 1,2-dioleoyl-sn-glycero-3-phosphocholine. Journal of Chromatography (2005); 1073:347-353). Waters 2695 HPLC with Waters 2996 Photodiode detector Array and a C8 column Hypersil BDS (250×4.6 mm, […]) were used carrying out an eluent isocratic method formed by a mixture of ammonium phosphate buffer 50 mM pH 2.7:methanol (15:85, v/v).

[3] = In vitro enzymatic digestion model of the digestive tract (pepsin, pancreatin, bile), HPLC; assay type: in vitro ADME; details: for metabolised at 0.5 h / metabolised at 2 h / metabolised at 0.25 h / metabolised at 1 h / metabolised at 5 min: read-out: Degradation (%); for degradation in the in vitro digestion model (in words): HPLC, completely degraded = at the beginning of the intestinal phase, resistant ones finally degraded at the end; for metabolised at 0.25 h: Intestinal phase 15 min.; for metabolised at 1 h: Intestinal phase 60 min.
From the text: An in vitro enzymatic digestion model of an in vivo digestive tract was developed for mimicking the physiological conditions to check and certify that each selected peptide was differently degraded throughout the gastro-intestinal tract by the digestive process. Pepsin, pancreatin and bile concentrations were optimized using a published experimental design (Granado-Lorencio et al (2007). J. Agri. Food. Chem., 55, 6387-6394).

Chain of PLA2 (pancreatic phospholipase A2) (P04054 23-148, species assumed): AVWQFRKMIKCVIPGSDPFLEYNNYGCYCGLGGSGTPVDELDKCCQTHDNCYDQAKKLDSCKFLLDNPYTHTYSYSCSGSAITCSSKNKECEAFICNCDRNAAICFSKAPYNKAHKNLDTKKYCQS

Question: For “Lactobacillus paracasei paracasei CNCM I-4270 [Strain 10]”, which Protease activity cell (soy glycinin) is on record?
Answer: 0.005 U.I./ml

Question: And the “Protease activity Supernatant” value (soy glycinin)?
Answer: 0.016 U.I./ml

Question: With “QDEDEDEDEDKPRPSRP (QDEDEDEDEDKPRPSRP; listed as Glycine soja) [Peptide P17c]” as the substance, how does the “% Fluorescence Reduction C. elegans” value [1] read?
Answer: 18.13 ± 5.57%

Question: Which IC50 (PL (pancreatic lipase)) does the source give for “QGENEEEDSGAIVTVK [Peptide P16f, QGENEEEDSGAIVTVK]” here?
Answer: 262 µM

Question: And the “Percentage of PLA2 inhibition” value ([2]; peptide 0.035 mg/ml)?
Answer: 13.6 ± 3.8%

Question: What about the “Percentage of PLA2 inhibition” value ([2]; peptide 0.35 mg/ml) of the same substance?
Answer: 13.6 ± 0.4%

Question: What about the “Percentage of PLA2 inhibition” value ([2]; peptide 2 mg/ml) of the same substance?
Answer: 15.9 ± 6.0%

Question: What about the “Percentage of PLA2 inhibition” value ([2]; peptide 3.5 mg/ml) of the same substance?
Answer: 22.5 ± 3.7%

Question: What about the “% Fluorescence Reduction” value [1] of the same substance?
Answer: 33.9 ± 5.7%

Question: And the “% Fluorescence Reduction C. elegans” value [1]?
Answer: 38.95 ± 8.7%

Question: And the metabolised at 0.5 h ([3]; Gastric phase 30 min.)?
Answer: 65.8%

Question: What about the metabolised at 2 h ([3]; Gastric phase 120 min.) of the same substance?
Answer: 95.2%

Question: What about the “degradation in the in vitro digestion model (in words)” value [3] of the same substance?
Answer: completely degraded

Question: And the metabolised at 0.25 h [3]?
Answer: 100%

Question: And the metabolised at 0.5 h ([3]; Intestinal phase 30 min.)?
Answer: 100%

Question: And the metabolised at 1 h [3]?
Answer: 100%

Question: What about the metabolised at 2 h ([3]; Intestinal phase 120 min.) of the same substance?
Answer: 100%

Question: What about the “Degradation (%)” value ([3]; Oral phase 5 min.) of the same substance?
Answer: −1.2%

Question: Which IC50 (PL (pancreatic lipase)) does the source give for “QGENEGEDKGAIVT [Peptide P14b, QGENEGEDKGAIVT]” here?
Answer: 346 µM

Question: And the “Percentage of PLA2 inhibition” value ([2]; peptide 0.035 mg/ml)?
Answer: 5.9 ± 5.0%

Question: And the “Percentage of PLA2 inhibition” value ([2]; peptide 0.35 mg/ml)?
Answer: 22.2 ± 5.6%

Question: What about the “Percentage of PLA2 inhibition” value ([2]; peptide 2 mg/ml) of the same substance?
Answer: 23.8 ± 5.5%

Question: What about the “Percentage of PLA2 inhibition” value ([2]; peptide 3.5 mg/ml) of the same substance?
Answer: 28.8 ± 3.1%

Question: And the “% Fluorescence Reduction” value [1]?
Answer: 30.25 ± 4.2%

Question: And the “% Fluorescence Reduction C. elegans” value [1]?
Answer: 35.30 ± 6.1%

Question: And the metabolised at 0.5 h ([3]; Gastric phase 30 min.)?
Answer: 6.7%

Question: And the metabolised at 2 h ([3]; Gastric phase 120 min.)?
Answer: 8.7%

Question: And the “degradation in the in vitro digestion model (in words)” value [3]?
Answer: resistant until the end of the process

Question: And the metabolised at 0.25 h [3]?
Answer: 36.7%

Question: What about the metabolised at 0.5 h ([3]; Intestinal phase 30 min.) of the same substance?
Answer: 48.9%

Question: And the metabolised at 1 h [3]?
Answer: 68.8%

Question: What about the metabolised at 2 h ([3]; Intestinal phase 120 min.) of the same substance?
Answer: 100%

Question: What about the metabolised at 5 min ([3]; Oral phase 5 min.) of the same substance?
Answer: 6%

Question: For SDNFEY [Peptide P6a, SDNFEY], which IC50 (PL (pancreatic lipase)) is on record?
Answer: 55.6 µM

Question: And the “Percentage of PLA2 inhibition” value ([2]; peptide 0.035 mg/ml)?
Answer: 10.6 ± 5.0%

Question: And the “Percentage of PLA2 inhibition” value ([2]; peptide 0.35 mg/ml)?
Answer: 12.1 ± 4.0%

Question: And the “Percentage of PLA2 inhibition” value ([2]; peptide 2 mg/ml)?
Answer: 24.5 ± 1.4%

Question: And the “Percentage of PLA2 inhibition” value ([2]; peptide 3.5 mg/ml)?
Answer: 31.9 ± 5.5%

Question: What about the “% Fluorescence Reduction” value [1] of the same substance?
Answer: 36.2 ± 4.1%

Question: And the “% Fluorescence Reduction C. elegans” value [1]?
Answer: 40.90 ± 11.6%

Question: What about the metabolised at 0.5 h ([3]; Gastric phase 30 min.) of the same substance?
Answer: 31%

Question: What about the metabolised at 2 h ([3]; Gastric phase 120 min.) of the same substance?
Answer: 66.9%

Question: And the metabolised at 0.25 h [3]?
Answer: 100%

Question: And the metabolised at 0.5 h ([3]; Intestinal phase 30 min.)?
Answer: 100%

Question: What about the metabolised at 1 h [3] of the same substance?
Answer: 100%

Question: What about the metabolised at 2 h ([3]; Intestinal phase 120 min.) of the same substance?
Answer: 100%

Question: What about the metabolised at 5 min ([3]; Oral phase 5 min.) of the same substance?
Answer: 23.7%

Question: Which Protease activity cell (soy glycinin) does the source give for “Streptococcus thermophilus CNCM I-1630 [Strain 7]” here?
Answer: 0.001 U.I./ml

Question: What about the “Protease activity Supernatant” value (soy glycinin) of the same substance?
Answer: 0.003 U.I./ml

Question: With “Streptococcus thermophilus CNCM I-2776 [Strain 6]” as the substance, how does the Protease activity cell (soy glycinin) read?
Answer: 0.001 U.I./ml

Question: What about the “Protease activity Supernatant” value (soy glycinin) of the same substance?
Answer: 0.006 U.I./ml

Question: With “Streptococcus thermophilus CNCM I-2785 [Strain 3]” as the substance, how does the Protease activity cell (soy glycinin) read?
Answer: 0.001 U.I./ml

Question: And the “Protease activity Supernatant” value (soy glycinin)?
Answer: 0.009 U.I./ml

Question: For “Streptococcus thermophilus CNCM I-2965 [Strain 2]”, which Protease activity cell (soy glycinin) is on record?
Answer: 0.003 U.I./ml

Question: And the “Protease activity Supernatant” value (soy glycinin)?
Answer: 0.005 U.I./ml

Question: Which Protease activity cell (soy glycinin) does the source give for “Streptococcus thermophilus CNCM I-3211 [Strain 5]” here?
Answer: 0.001 U.I./ml

Question: What about the “Protease activity Supernatant” value (soy glycinin) of the same substance?
Answer: 0.003 U.I./ml

Question: With “Streptococcus thermophilus CNCM I-4269 [Strain 4]” as the substance, how does the Protease activity cell (soy glycinin) read?
Answer: 0.002 U.I./ml

Question: What about the “Protease activity Supernatant” value (soy glycinin) of the same substance?
Answer: 0.001 U.I./ml
